From US11434227B2, “Broad spectrum antibacterial activity of novel bisbenzimidazoles targeting topoisomerase IA and the synergistic composition of bisbenzimidazole with efflux pump inhibitors against pathogenic bacteria” (Jawaharlal Nehru University (JNU), priority 2016, dated 2022)
≈ marks a conversion by molar mass, not a printed value.

Columns and labels:
[1] = target: E. coli Topoisomerase IA (EcTopoIA) (Escherichia coli, UniProt P06612); assay: Topoisomerase IA relaxation inhibition assay; assay type: biochemical; details: compared to DMA
Experimental: E. coli Topoisomerase IA (EcTopoIA) purified protein was diluted in buffer (10 mM Tris-HCl pH 8.0, 50 mM NaCl, 0.1 mg/mL gelatin, 0.5 mM MgCl2). Compounds were added in concentrations 1, 5, 10, 25 and 50 μM to 10 ng of the diluted enzyme present in 20 μL reaction volume. 500 ng of supercoiled pHOT plasmid DNA purified by Qiagen Maxiprep Kit was added. The mixture was incubated at 37° C. for 30 min before termination of the reaction and analysed by agarose gel electrophoresis without Ethidium bromide. The gels were then stained with ethidium bromide which was further photographed over UV transilluminator and analysed by performing densitometry.
Mechanism of inhibition was determined by performing relaxation assay in three different conditions. First, relaxation assay was done with increasing concentrations of Mg^2+ from 0 to 50 mM to find out optimum concentration of Mg^2+ required by EcTopo 1A. Second, relaxation assay was performed with increasing concentration of Mg^2+ in the presence of 5 μM compound and third, reaction we have increased the concentration of compound from 5 to 100 μM in a buffer with 25 mM of MgCl2.

[2] = system: efflux and porin genes (acrAB-tolC, emrAB-tolC, ompC, ompF) in E. coli K12 cells; assay: Gene expression analysis by real-time qPCR; assay type: cell-based, Escherichia coli; details: E. coli K12 cells treated with ¼ MIC
[3] = system: E. coli ATCC 25922; assay: Neutropenic thigh infection model
Experimental: The neutropenic mice thigh infection model, fully described by. Craig, was used in this study. Female Balb/c mice (6 mice per dosing group) weighing 20-25 g were rendered neutropenic with 2 intraperitoneal injections of cyclophosphamide (150 mg/kg of body weight 4 days prior to bacterial inoculation and 100 mg/kg 1 day before inoculation) 2 h prior to bacterial inoculation. […] Bacteria were injected into the right thigh of each mouse at time zero. […] Neutropenia was defined as an absolute neutrophil count of 500 polymorphonuclear leukocytes/cm^3 of blood. The bacterial suspension was diluted to a concentration of 10^6 CFU/mL with normal saline. Then, 0.1 mL of the bacterial suspension was injected into each posterior thigh muscle 2 h after the second dose of cyclophosphamide was administered. […] Twenty-four hours after drug treatment was begun, the mice were humanely sacrificed. Right thigh muscles from each mouse were aseptically collected, homogenized and serially diluted 1:10 in phosphate buffer saline, and processed for quantitative cultures.

[4] = system: Enterococcus sp. (2105); assay: Susceptibility (MIC50/MIC90), broth microdilution
Experimental: (§1) MICs were determined by the broth microdilution method according to CLSI methods (Clinical and Laboratory Standards Institute, 2005). Inoculants were incubated at 37° C. on cation adjusted Mueller Hinton (MH) Broth for 18 to 24 h. Compound were dissolved in media to 10 doubling dilutions from 128 to 0.125 μg/mL. All the bacterial strains were grown in 96 well plate with low evaporation lid (Falcon, Becton Dickinson) in presence of derivatives of benzimidazoles at 0.125, 0.25, 0.5, 1, 2, 4, 8, 16, 32, 64, 128, 256 μg/mL concentrations. […] Plates were read by Tecan Micro-plate Reader at 600 nm.

[5] = system: Enterococcus sp. (432); assay: Susceptibility (MIC50/MIC90), broth microdilution
Experimental: as §1

[6] = system: Staphylococcus sp. (982); assay: Susceptibility (MIC50/MIC90), broth microdilution
Experimental: as §1

[7] = system: Staphylococcus sp. (1016); assay: Susceptibility (MIC50/MIC90), broth microdilution; details: Staphylococcus
Experimental: as §1

[8] = system: Acinetobacter baumannii (AB387); assay: Susceptibility (MIC50/MIC90), broth microdilution
Experimental: as §1

[9] = system: Pseudomonas aeruginosa (Ps162); assay: Susceptibility (MIC50/MIC90), broth microdilution
Experimental: as §1

[10] = system: Pseudomonas aeruginosa (MTCC1688); assay: Susceptibility (MIC50/MIC90), broth microdilution
Experimental: as §1

[11] = system: Pseudomonas aeruginosa (MTCC 366); assay: Susceptibility (MIC50/MIC90), broth microdilution; details: MTCC366
Experimental: as §1

[12] = system: Klebsiella planticola (K235); assay: Susceptibility (MIC50/MIC90), broth microdilution
Experimental: as §1

[13] = system: Salmonella typhimurium (St412); assay: Susceptibility (MIC50/MIC90), broth microdilution; details: Salmonella enterica
Experimental: as §1

[14] = system: E. coli K12 mutant ΔompF; assay: Susceptibility of E. coli K12 and mutants (MIC90); details: Escherichia coli
Experimental: as §1

[15] = system: E. coli K12 mutant ΔTopIB; assay: Susceptibility of E. coli K12 and mutants (MIC90); details: Escherichia coli
Experimental: as §1

[16] = system: E. coli DH5α; assay: Susceptibility (MIC, PAE, MBC), broth microdilution; details: Escherichia coli
Experimental: as §1

[17] = system: Escherichia coli (ATCC 25922); assay: as above; details: Escherichia coli
Experimental: as §1

[18] = system: E. coli 72^R; assay: as above; details: Escherichia coli
Experimental: as §1

[19] = system: E. coli 59^R; assay: as above; details: Escherichia coli
Experimental: as §1

[20] = system: E. coli 555^R; assay: as above; details: Escherichia coli
Experimental: as §1

[21] = system: E. coli KK45; assay: HN12b in combination with efflux pump inhibitors (CB method, FICI)
Experimental: (§2) 96-well microtiter plates containing MIC25 concentrations of the Efflux pump inhibitor (CCCP, PAβN) and HN12b antimicrobial drugs alone and in CB combination were used. The MICs of the individual drugs HN12b, PAβN and CCCP (0.25 to 128 μg/ml) and of the combinations were determined using the broth microdilution technique as recommended by the CLSI. Briefly, the broth microdilution plates were inoculated with each test organism to yield the appropriate density (10^5 CFU/ml) in 100 μl Mueller-Hinton broth (MHB) and incubated for 24 h at 37° C. in ambient air. One well with no antibiotic was used as a positive growth control on each plate. Plates were read for visual turbidity, and results were recorded after 24 h of incubation at 37° C. in ambient air by using a magnifying mirror reader, as turbidity in wells indicated growth of the microorganism. The MIC was determined as the well in the microtiter plate with the lowest drug concentration at which there was no visible growth. […] MICAB was defined as the MIC of drug A in the presence of drug B; MICBA was defined as the MIC of drug B in the presence of drug A.
(§3) The fractional inhibitory concentration index (FICI) was calculated for each antibiotic in each combination by using the following formula: FICA+FICB=FICI, where FICA equals the MIC of drug A in combination divided by the MIC of drug A alone and FICB equals the MIC of drug B in combination divided by the MIC of drug B alone. The FICIs were interpreted as follows: FICI of ≤0.5 will correspond to synergy; FICI of >0.5 to ≤1 will correspond to additivity; FICI of >1 to ≤4 will correspond to no interaction (indifference), and FICI of >4 will correspond antagonism.

[22] = system: A. baumannii (AB387); assay: as above; details: for FICI / Interpretation: A. baumannii (AB387)
Experimental: as §2, §3

[23] = system: P. aeruginosa (Ps 366); assay: as above
Experimental: as §2, §3

[24] = ATCC25922, Escherichia coli (ATCC 25922), Table 2
[25] = P. aeruginosa (Ps 366), HN12b + CCCP

Sequence of E. coli Topoisomerase IA (EcTopoIA) (P06612 whole entry): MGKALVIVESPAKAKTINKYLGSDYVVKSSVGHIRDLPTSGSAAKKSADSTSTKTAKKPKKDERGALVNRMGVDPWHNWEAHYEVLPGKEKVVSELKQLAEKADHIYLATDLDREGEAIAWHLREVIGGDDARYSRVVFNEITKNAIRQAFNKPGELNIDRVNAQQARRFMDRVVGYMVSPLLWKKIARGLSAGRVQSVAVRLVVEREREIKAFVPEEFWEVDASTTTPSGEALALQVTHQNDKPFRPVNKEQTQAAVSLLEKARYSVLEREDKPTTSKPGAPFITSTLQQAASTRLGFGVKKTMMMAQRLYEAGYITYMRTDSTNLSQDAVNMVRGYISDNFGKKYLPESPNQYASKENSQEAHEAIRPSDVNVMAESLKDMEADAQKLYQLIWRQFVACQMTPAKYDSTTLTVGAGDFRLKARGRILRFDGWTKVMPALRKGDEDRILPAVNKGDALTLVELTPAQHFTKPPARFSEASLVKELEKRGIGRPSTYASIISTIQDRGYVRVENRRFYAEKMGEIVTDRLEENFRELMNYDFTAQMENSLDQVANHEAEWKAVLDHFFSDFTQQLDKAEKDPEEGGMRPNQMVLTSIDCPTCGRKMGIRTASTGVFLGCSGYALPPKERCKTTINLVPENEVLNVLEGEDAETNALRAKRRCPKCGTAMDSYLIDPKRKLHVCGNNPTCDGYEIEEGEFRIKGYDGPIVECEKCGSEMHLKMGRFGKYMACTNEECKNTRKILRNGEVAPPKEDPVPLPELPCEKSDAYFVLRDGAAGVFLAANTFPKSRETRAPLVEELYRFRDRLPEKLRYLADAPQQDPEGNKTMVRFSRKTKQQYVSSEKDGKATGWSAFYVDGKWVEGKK

CCCN1CCN(c2nc3ccc(-c4nc5ccccc5[nH]4)cc3[nH]2)CC1 [HN12b, 2′-(4-propylpiperazine-1-yl)-1H, 3′H-2,5′-bibenzimidazole]
Topoisomerase Inhibition activity [1]: improved Topoisomerase Inhibition activity as compared to DMA | gene expression of efflux pumps and porins [2]: acrAB-tolC and emr AB-tolC activation and ompC and ompF down-regulation | in vivo efficacy ([3]; Neutropenia thigh model, E. coli ATCC 25922): good in vivo efficacy | Dose at 1 log reduction ([3]; Neutropenic Thigh, ATCC25922): 3 mg/kg/bw/day | Dose at 3 log reduction ([3]; Neutropenic Thigh, ATCC25922): 5 mg/kg/bw/day | MIC50 [4]: 28.4 mg/L (≈ 78.8 µM) | MIC90 [4]: 128 mg/L (≈ 355 µM) | MIC50 [5]: < 0.25 mg/L | MIC90 [5]: 8.25 mg/L (≈ 22.9 µM) | MIC50 [6]: 0.44 mg/L (≈ 1.22 µM) | MIC90 [6]: 7.44 mg/L (≈ 20.6 µM) | MIC50 [7]: 0.57 mg/L (≈ 1.58 µM) | MIC90 [7]: 4.57 mg/L (≈ 12.7 µM) | MIC50 [8]: 3.25 mg/L (≈ 9.02 µM) | MIC90 [8]: 8 mg/L (≈ 22.2 µM) | MIC50 [9]: 2.94 mg/L (≈ 8.16 µM) | MIC90 [9]: 5.94 mg/L (≈ 16.5 µM) | MIC50 [10]: > 128 mg/L | MIC90 [10]: 128 mg/L (≈ 355 µM) | MIC50 [11]: 19 mg/L (≈ 52.7 µM) | MIC90 [11]: 128 mg/L (≈ 355 µM) | MIC50 [12]: 4.52 mg/L (≈ 12.5 µM) | MIC90 [12]: 84.5 mg/L (≈ 234 µM) | MIC50 [13]: < 0.25 mg/L | MIC90 [13]: < 0.25 mg/L | MIC90 [14]: 5.4 mg/L (≈ 15 µM) | MIC90 [15]: 3.8 mg/L (≈ 10.5 µM) | MBC [16]: 0.8 mg/L (≈ 2.22 µM) | MIC50 [16]: 0.2 mg/L (≈ 0.555 µM) | MIC90 [16]: 0.2 mg/L (≈ 0.555 µM) | MBC ([17]; ATCC25922): 4 mg/L (≈ 11.1 µM) | MIC50 ([17]; ATCC25922, ATCC 25922): 0.2 mg/L (≈ 0.555 µM) | MIC90 ([17]; ATCC25922, ATCC 25922): 3.3 mg/L (≈ 9.15 µM) | MIC50 ([17]; ATCC25922, ATCC25922, Table 7): 0.2 ± 0.024 mg/L (≈ 0.555 µM) | MIC50 [17, 24]: 8 mg/L (≈ 22.2 µM) | MIC90 [17, 24]: 26.6 mg/L (≈ 73.8 µM) | MIC90 [18]: 3.1 mg/L (≈ 8.6 µM) | MBC [19]: 4 mg/L (≈ 11.1 µM) | MIC50 [19]: 2 mg/L (≈ 5.55 µM) | MIC90 [19]: 3.4 mg/L (≈ 9.43 µM) | MBC [20]: 8 mg/L (≈ 22.2 µM) | MIC50 [20]: 4 mg/L (≈ 11.1 µM) | MIC90 [20]: 6.8 mg/L (≈ 18.9 µM) | FICI ([21]; E. coli KK45, HN12b + CCCP): 0.3 | Interpretation ([21]; E. coli KK45, HN12b + CCCP): Synergy (FICI of ≤0.5 will correspond to synergy) | FICI ([21]; E. coli KK45, HN12b + PAβN): 0.7 | MIC90 ([21]; Escherichia coli, KK45): 16 mg/L | FICI ([22]; HN12b + CCCP): 0.2 | Interpretation ([22]; HN12b + CCCP): Synergy (FICI of ≤0.5 will correspond to synergy) | FICI ([22]; HN12b + PAβN): 0.2 | Interpretation ([22]; HN12b + PAβN): Synergy (FICI of ≤0.5 will correspond to synergy) | MIC90 ([22]; Acinetobacter baumannii): 8 mg/L | FICI [23, 25]: 0.6 | Interpretation [23, 25]: Synergy (FICI of ≤0.5 will correspond to synergy) | FICI ([23]; P. aeruginosa (Ps 366), HN12b + PAβN): 0.9 | MIC90 ([23]; Pseudomonas aeruginosa): > 128 mg/L
